From patent US7598244B2, “[1,2,4]triazolo[1,5,a]pyrimidin-2-ylurea derivative and use thereof” (Nippon Kayaku Kabushiki Kaisha, priority 2003, dated 2009)

Key:
CD40 = assay: Expression of antigen-presenting and costimulatory molecules of human peripheral blood-derived dendritic cells: CD40; format: cell-based
Experimental: Action on Expression of Antigen-Presenting Molecules and Costimulatory Molecules of Human Peripheral Blood-Derived Dendritic Cells
The dendritic cells obtained by the same method as in Test Example 2 were suspended in RPMI 1640 comprising 10% FCS containing 500 U/ml GM-CSF, 50 ng/ml IL-4, and 100 U/ml human recombinant tumor necrosis factor (2.5×10^6 cells/ml). Thereafter, the suspension was inoculated into a 6-well plate at an amount of 2.0 ml/well, and the test compound was then added thereto. The mixture was cultured at 37° C. for 3 days in an incubator containing 5% carbon dioxide. Thereafter, the suspended cells were recovered. The cells were then stained with fluoroisothiocyanate-labeled mouse monoclonal antibodies reacting with MHC class I (Bechman Coulter), CD1a (Immunotech), CD40 (Pharmingen), CD80 (Pharmingen), and CD83 (Immunotech). Thereafter, mean fluorescence intensity and the ratio of positive cells were measured by flow cytometry. The expression level was calculated by the formula “the mean fluorescence intensity x the ratio of positive cells,” and the inhibition rate of the surface antigen expression level of dendritic cells was then obtained by the following formula (8).
[formula] • Eexp: Expression level of surface antigens of dendritic cells cultured in the presence of test compound • Cexp: Expression level of surface antigens of dendritic cells cultured in the absence of test compound

BALB/c mice = assay: Effect on mouse delayed-type hypersensitivity reaction (DTH reaction), swelling of the sole; format: in vivo; conditions: Oral
Experimental: Effect on Mouse Delayed-Type Hypersensitivity Reaction (DTH Reaction)
1.0×10^5 sheep erythrocytes (Nippon Seibutsu Zairyo Center, Co., Ltd.) were administered to each of BALB/c mice (Charles River Japan, Inc.; female; 8-week-old) by intravenous injection for sensitization. From the day of administration of the sheep erythrocytes, a test compound was administered to the mouse. As a control, a 0.5% carboxymethyl cellulose (CMC)-Na solution and a normal saline solution used as solvents were administered to the same type of mouse via oral administration or intraperitoneal administration. Five days after the antigen sensitization, 1.0×10^8 sheep erythrocytes were subcutaneously injected into the sole of the mouse. 24 hours later, the thickness of the sole was measured. The value obtained by subtracting the mean value of the thicknesses of the soles of mice, to which a normal saline solution had been administered instead of the sheep erythrocytes, from the above measurement value, was defined as swelling of the sole generated as a result of the DTH reaction. The inhibition rate of the swelling of the sole caused by the DTH reaction was calculated using the following formula (5). The amount of the test compound necessary for inhibition of 50% (ED50 value) was obtained as the activity of the test compound to inhibit the DTH reaction. It is to be noted that cyclosporin A was used as a positive control.
[formula] • Eexp: Swelling of sole of mouse to which test compound was administered • Cexp: Swelling of sole of mouse to which solvent was administered

[1] = test system: (C57BL/6XB6. C—H2^bml) F1 mice; assay: Life-lengthening effect on graft versus host disease (GVHD); format: in vivo, mouse; conditions: oral, once a day
Experimental: Life-Lengthening Effect on Graft Versus Host Disease (GVHD)
The present test was carried out by modification of the method of Jonathan et al. (Jonathan et al., Blood, p. 93 (1999)). First, 6.0 Gy X-ray was applied to (C57BL/6XB6. C—H2^bml) F1 mice (produced by mating 6XB6.C—H2^bml mice (Jackson Laboratory) with C57BL/6 mice (Charles River Japan); female; 8 to 12-week-old). Thereafter, CD8 positive T cells (1.25×10^6 cells) prepared from the splenic cells of C57BL/6 mice (Charles River Japan; female; 8-week-old) were intravenously injected into the above (C57BL/6XB6. C—H2^bml) F1 mice. From the day before the injection, the test compound having each diluted concentration or 0.5% carboxymethyl cellulose used as a solvent was orally administered to the mice once a day for 7 to 30 consecutive days. The day on which the transplantation was conducted was defined as day 0. Based on the median of the survival days of each group, the prolongation rate of such survival dates was calculated using the following formula (7). Thus, the effect of the test compound on GVHD was analyzed.
[formula] • Eexp: Median of survival days of test compound administration group • Cexp: Median of survival days of solvent administration group

[2] = test system: MHC class I molecules of human peripheral blood-derived dendritic cells; assay: Effect on expression of MHC class I molecules from human peripheral blood-derived dendritic cells; format: cell-based; conditions: dendritic cells matured with TNF-α, 3 days; read-out: EC50 (reduction of 50% of the number of cells wherein MHC class I molecules were highly expressed)
Procedure, shortened: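 Human blood CD14+ monocytes differentiated 7 days with GM-CSF 500 U/ml and IL-4 50 ng/ml into immature dendritic cells. These were matured with 100 U/ml TNF-α plus test compound for 3 days at 37 °C. MHC class I-high fraction measured by flow cytometry (W6/32 antibody); EC50 is concentration giving 50% reduction versus untreated.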

## CC(C)NC(=O)Nc1nc2nccc(-c3cccs3)n2n1 [Example 029, 1-isopropyl-3-(7-thiophen-2-yl[1,2,4]triazolo[1,5-a]pyrimidin-2-yl)urea]
CD40; Analyte 1, 3 days
  Expression inhibition rate by test compound (%), CD40: 10.8%
CD40; Analyte 2, 3 days
  Expression inhibition rate by test compound (%), CD40: −5.4%
CD40; Analyte 3, 3 days
  Expression inhibition rate by test compound (%), CD40: 12.9%
BALB/c mice; administration period 7 days, 50 mg/kg/single administration
  Inhibition rate (%) of swelling of the sole: 37.0%
BALB/c mice; administration period 7 days, 100 mg/kg/single administration
  Inhibition rate (%) of swelling of the sole: 49.5%
BALB/c mice; administration period 8 days, 50 × 2 (50 mg/kg, twice a day)
  Inhibition rate (%) of swelling of the sole: 80.0%
[1]; 25 mg/kg/single administration
  Lengthening rate of survival days (%): 75%
[1]; 100 mg/kg/single administration
  Lengthening rate of survival days (%): 200%
[2]
  EC50: 480 nM
